Data: patent publication US20160041146A1 (priority 2014, published 2016)
Where two headings read alike, the source gives them in different places.

Format: in vivo, human
Conditions: for Urine concentration (median): 50 subjects; for μA, population mean of ln(PMET/SMET), ratio of primary (parent) to secondary metabolite concentration in urine: large batch of historical UDT patient data (for quetiapine: model A), the σA is the standard deviation
From the text: Determining the amount of a drug in fluid of the subject may be accomplished by use of any method known to those skilled in the art. Non-limiting examples for determining the amount of a drug in fluid of a subject include fluorescence polarization immunoassay (“FPIA,” Abbott Diagnostics), mass spectrometry (MS), gas chromatography-mass spectrometry (GC-MS-MS), liquid chromatography-mass spectrometry (LC-MS-MS), and the like. In one embodiment, LC-MS-MS methods known to those skilled in the art are used to determine a raw level, amount or concentration of a drug in urine of the subject. In one embodiment, a raw level or concentration of a drug in urine of a subject is measured and reported as a ratio, percent, or in relationship to the amount of fluid. The amount of fluid may be expressed as a unit volume, for example, in L, mL, μL, pL, ounce, etc. In one embodiment, the raw amount of a drug in urine of a subject may be expressed as an absolute level or value, for example, in g, mg, μg, ng, pg, etc.
In an embodiment, the raw primary metabolite and secondary metabolite concentrations measured in urine of the subject are transformed and normalized (hereafter “Equation 3”): […]
where ln is the natural log, PMET is the concentration of the primary metabolite also referred to as the parent drug in […]; and SMET is the concentration of the secondary metabolite in […]. The value is then transformed into its corresponding value on the standard normal (e.g., Gaussian) distribution using (hereafter “Equation 4): […]
where NORMSTD(RATIO) is the standardized normal value (also referred to herein as the Z-score) and μA and σA are the mean and the standard deviation respectively of the population used to construct the model described in Equation 3. The resulting mean and standard deviation of the standardized normal distribution, NORMSTD(RATIO), are “0” and “1” respectively.
The Data Sets used to establish the ratio models were cleaned as detailed below and the resulting information used only considered patients who tested positive for the primary and secondary metabolite of interest and were prescribed the drug of interest. Furthermore, to ensure integrity of the data only patients with qualifying sample validity test information (sample pH and sample creatinine level), as described in detail in other embodiments were included in the model. […] Consequently, all patients were included in the model regardless of whether their illicit drug test was positive or negative.
Once the patient(s) meet acceptable Sample Validity test results and non-zero values, expected values based on the model can be calculated using the models described below (Equation 3 and Equation 4 detailed in other embodiments).

[1] = patient validity data set for Quetiapine models, average quetiapine dosage 299 mg
[2] = patient validity data set for Alprazolam model, average alprazolam dosage 2.26 mg
[3] = Oxycodone model population, approximately 48,800 patient results over one year, average daily dosage 36 mg
[4] = patient validity data set for Oxycodone model, average oxycodone dosage 24 mg

OCCOCCN1CCN(C2=Nc3ccc(O)cc3Sc3ccccc32)CC1 [7-hydroxyquetiapine]
median urine drug concentration (Alprazolam model population, approximately 256,000 patient results over nine years, average daily dosage 3 mg): 329 ng/mL
median urine drug concentration (Quetiapine model A population, approximately 5,455 patient results collected over three years, average daily dosage 229 mg): 95 ng/mL
median urine drug concentration (Quetiapine model B population, approximately 236 patient results, six month clinical trial, average daily dosage 310 mg): 55 ng/mL
Urine concentration (median) [1]: 62 ng/mL

OCc1nnc2n1-c1ccc(Cl)cc1C(c1ccccc1)=NC2 [alpha-hydroxyalprazolam]
Urine concentration (median) [2]: 265 ng/mL

Cc1nnc2n1-c1ccc(Cl)cc1C(c1ccccc1)=NC2 [alprazolam]
μA, population mean of ln(PMET/SMET), ratio of primary (parent) to secondary metabolite concentration in urine: −0.463
Urine concentration (median) [2]: 118 ng/mL

COc1ccc2c3c1O[C@H]1C(=O)CC[C@H]4[C@@H](C2)N(C)CC[C@]314 [hydrocodone]
median urine drug concentration (Hydrocodone model population, approximately 84,000 patient results over one year, average daily dosage 32 mg): 1395 ng/mL
μA, population mean of ln(PMET/SMET), ratio of primary (parent) to secondary metabolite concentration in urine: 0.996
Urine concentration (median) (patient validity data set for Hydrocodone model, average hydrocodone dosage 26 mg): 1428 ng/mL

COc1ccc2c3c1O[C@H]1C(=O)CC[C@@]4(O)[C@@H](C2)N(C)CC[C@]314 [oxycodone]
median urine drug concentration [3]: 1421 ng/mL
μA, population mean of ln(PMET/SMET), ratio of primary (parent) to secondary metabolite concentration in urine: −0.083
Urine concentration (median) [4]: 1509 ng/mL

CN1CC[C@]23c4c5ccc(O)c4O[C@H]2C(=O)CC[C@@]3(O)[C@H]1C5 [oxymorphone]
median urine drug concentration [3]: 1248 ng/mL
Urine concentration (median) [4]: 1579 ng/mL

OCCOCCN1CCN(C2=Nc3ccccc3Sc3ccccc32)CC1 [quetiapine]
Urine concentration (median) [1]: 69 ng/mL
